Test results taken from ChEMBL document CHEMBL1158277, “N -(Indol-3-ylethyl)-2-hydroxy-3-methylpentanamide, a Novel Indole Derivative from Xenorhabdus nematophilus” (J Nat Prod, 1996).
Activity calls are given as the source filed them. No cut-off for these calls is given here.

Tested on: Bacillus subtilis
Test: Antibacterial activity against Bacillus subtilis at 100 ug/mL
Assay type: functional, organism-based

## CC[C@H](C)[C@@H](O)C(=O)NCCc1c[nH]c2ccccc12
  Activity: inactive
